{"source": "patent US20110105555A1", "about": "“SUBSTITUTED N-IMIDAZO[2,1-B]THIAZOLE-5-SULFONAMIDE DERIVATIVES AS 5-HT6 LIGANDS” (priority 2008, published 2011)", "note": "Where a name gives a salt, the structure may show the parent alone.", "data": [{"molecular_target": "T1, 5HT6-human recombinant receptor (Homo sapiens, UniProt P50406)", "T1 sequence (P50406 whole entry)": "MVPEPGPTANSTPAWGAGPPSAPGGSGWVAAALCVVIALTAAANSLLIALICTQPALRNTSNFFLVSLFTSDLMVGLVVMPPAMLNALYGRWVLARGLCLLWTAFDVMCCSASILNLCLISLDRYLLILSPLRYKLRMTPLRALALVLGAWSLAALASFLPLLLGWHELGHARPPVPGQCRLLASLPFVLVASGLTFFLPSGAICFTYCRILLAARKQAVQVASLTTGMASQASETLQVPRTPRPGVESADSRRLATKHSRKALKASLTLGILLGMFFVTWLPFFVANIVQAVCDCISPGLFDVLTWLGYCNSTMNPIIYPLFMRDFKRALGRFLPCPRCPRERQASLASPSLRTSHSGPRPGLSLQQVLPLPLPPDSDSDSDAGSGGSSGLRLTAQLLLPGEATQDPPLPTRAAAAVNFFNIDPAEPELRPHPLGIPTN", "experiment": "not given", "conditions": "cited from earlier work", "values": [{"compound": "CN(C)CCc1c[nH]c2ccc(NS(=O)(=O)c3ccc4c(Cl)cccc4c3)cc12", "note": "[Compound E-6837, 5-chloro-N-[3-(2-(dimethylamino)ethyl)-1H-indol-5-yl]naphthalene-2-sulphonamide]", "binding for the recombinant human 5-HT6 receptor": "selective and high affinity binding"}]}, {"tested_on": "not given", "experiment": "not given", "conditions": "in vivo; cited from earlier work", "values": [{"compound": "CN(C)CCc1c[nH]c2ccc(NS(=O)(=O)c3ccc4c(Cl)cccc4c3)cc12", "note": "[Compound E-6837, 5-chloro-N-[3-(2-(dimethylamino)ethyl)-1H-indol-5-yl]naphthalene-2-sulphonamide]", "body weight": "significant body weight loss", "food intake": "reduction in the food intake"}]}, {"molecular_target": "T1, 5HT6-human recombinant receptor", "experiment": "Binding to serotonin receptor 5-HT6 ([3H]-LSD radioligand, HEK-293 cell membranes)", "parameters": "purchased Receptor Biology; host or cells: HEK-293 cells (membranes)", "conditions": "[3H]-LSD 2.7 nM, 60 minutes at 37° C., tests in triplicate", "method": "Binding to Serotonin Receptor 5ht6\nCell membranes of HEK-293 cells expressing the 5HT6-human recombinant receptor were supplied by Receptor Biology. In said membranes the receptor concentration is 2.18 pmol/mg protein and the protein concentration is 9.17 mg/ml. The experimental protocol follows the method of B. L. Roth et al. [B. L. Roth et al., The Journal of Pharmacology and Experimental Therapeutics, 1994, 268, 1403] with the following slight changes. The respective part of the literature description is hereby incorporated by reference and forms part of the disclosure.\nThe commercial membrane is diluted (1:40 dilution) with the binding buffer: 50 mM Tris-HCl, 10 mM MgCl2, 0.5 mM EDTA (pH 7.4). The radioligand used is [^3H]-LSD at a concentration of 2.7 nM with a final volume of 200 μl. incubation is initiated by adding 100 μl of membrane suspension, (≈22.9 μg membrane protein), and is prolonged for 60 minutes at a temperature of 37° C. The incubation is ended by fast filtration in a Brandel Cell Harvester through fiber glass filters made by Schleicher & Schnell GF 3362 pretreated with a solution of polyethylenimine at 0.5%. The filters are washed three times with three milliliters of buffer Tris-HCl 50 mM pH 7.4. The filters are transferred to flasks and 5 ml of Ecoscint H liquid scintillation cocktail are added to each flask. The flasks are allowed to reach equilibrium for several hours before counting with a Wallac Winspectral 1414 scintillation counter. Non-specific binding is determined in the presence of 100 μM of serotonin, Tests were made in triplicate. The inhibition constants (Ki, nM) were calculated by non-linear regression analysis using the program EBDA/LIGAND described in Munson and Rodbard, Analytical Biochemistry, 1980, 107, 220, which is hereby incorporated by reference and forms part of the disclosure.", "units": {"Ki": "nM"}, "values": [{"compound": "O=S(=O)(Nc1ccc2[nH]ncc2c1)c1c(Cl)nc2sccn12", "note": "[Compound 25, 6-Chloro-imidazo[2,1-b]thiazole-5-sulfonic acid (1H-indazol-5-yl)-amide hydrochloride]", "Ki": 5.7}, {"compound": "O=S(=O)(Nc1ccc2[nH]ccc2c1)c1c(Br)nc2sccn12", "note": "[Compound 36, 6-Bromo-imidazo[2,1-b]thiazole-5-sulfonic acid (1H-indol-5-yl)-amide]", "Ki": 10}, {"compound": "O=C1CCc2ccc(NS(=O)(=O)c3c(Br)nc4sccn34)cc21", "note": "[Compound 41, 6-Bromo-imidazo[2,1-b]thiazole-5-sulfonic acid (3-oxo-indan-5-yl)-amide hydrochloride]", "Ki": 4.9}, {"compound": "O=S(=O)(Nc1ccc2c(c1)NCC2)c1c(Cl)nc2sccn12", "note": "[Compound 34, 6-Chloro-imidazo[2,1-b]thiazole-5-sulfonic acid (2,3-dihydro-1H-indol-6-yl)-amide]", "Ki": 7.4}, {"compound": "CC(C)(C)OC(=O)n1ncc2cc(NS(=O)(=O)c3c(Br)nc4sccn34)ccc21", "note": "[Compound 60, 5-(6-Bromo-imidazo[2,1-b]thiazole-5-sulfonylamino)-indazole-1-carboxylic acid tert-butyl ester]", "Ki": 6.6}, {"compound": "CC(=O)N1CCc2ccc(NS(=O)(=O)c3c(Cl)nc4sccn34)cc21", "note": "[Compound 20, 6-Chloro-imidazo[2,1-b]thiazole-5-sulfonic acid (1-acetyl-2,3-dihydro-1H-indol-6-yl)-amide]", "Ki": 12.8}, {"compound": "O=S(=O)(Nc1ccc2ncsc2c1)c1c(Cl)nc2sccn12", "note": "[Compound 3, 6-Chloro-imidazo[2,1-b] thiazole-5-sulfonic acid benzothiazol-6-ylamide]", "Ki": 12.7}, {"compound": "O=C1CCc2ccc(NS(=O)(=O)c3c(Cl)nc4sccn34)cc21", "note": "[Compound 28, 6-Chloro-imidazo[2,1-b]thiazole-5-sulfonic acid (3-oxo-indan-5-yl)-amide]", "Ki": 7.1}, {"compound": "O=S(=O)(Nc1ccc2c(c1)COC2)c1c(Cl)nc2sccn12", "note": "[Compound 31, 6-Chloro-imidazo[2,1-b]thiazole-5-sulfonic acid (1,3-dihydro-isobenzo furan-5-yl)-amide]", "Ki": 68}, {"compound": "CC(=O)N1CCc2ccc(NS(=O)(=O)c3c(Br)nc4sccn34)cc21", "note": "[Compound 38, 6-Bromo-imidazo[2,1-b]thiazole-5-sulfonic acid (1-acetyl-2,3-dihydro-1H-indol-6-yl)-amide]", "Ki": 37.2}, {"compound": "Cc1nc2cc(NS(=O)(=O)c3c(Cl)nc4sccn34)ccc2s1", "note": "[Compound 4, 6-Chloro-imidazo[2,1-b] thiazole-5-sulfonic acid (2-methyl-benzothiazol-5-yl)-amide]", "Ki": 14.5}, {"compound": "CN(C)c1ccc(NS(=O)(=O)c2c(Cl)nc3sccn23)cc1", "note": "[Compound 16, 6-Chloro-imidazo[2,1-b] thiazole-5-sulfonic acid (4-dimethylamino-phenyl)-amide]", "Ki": 8.7}, {"compound": "O=S(=O)(Nc1ccc2c(c1)CCCC2)c1c(Cl)nc2sccn12", "note": "[Compound 30, 6-Chloro-imidazo[2,1-b]thiazole-5-sulfonic acid (5,6,7,8-tetrahydro-naphthalen-2-yl)-amide]", "Ki": 19}, {"compound": "CCN(CC)c1ccc(NS(=O)(=O)c2c(Cl)nc3sccn23)cc1", "note": "[Compound 32, 6-Chloro-imidazo[2,1-b]thiazole-5-sulfonic acid (4-diethylamino-phenyl)-amide hydrochloride]", "Ki": 5.4}, {"compound": "Cn1ccc2cc(NS(=O)(=O)c3c(Cl)nc4sccn34)ccc21", "note": "[Compound 15, 6-Chloro-imidazo[2,1-b] thiazole-5-sulfonic acid (1methyl-1H-indol-5-yl)-amide]", "Ki": 23}, {"compound": "CC(=O)N1CCc2cc(NS(=O)(=O)c3c(Br)nc4sccn34)ccc21", "note": "[Compound 37, 6-Bromo-imidazo[2,1-b]thiazole-5-sulfonic acid (1-acetyl-2,3-dihydro-1H-indol-5-yl)-amide]", "Ki": 1.3}, {"compound": "O=S(=O)(Nc1ccc2c(c1)CCC2)c1c(Cl)nc2sccn12", "note": "[Compound 1, 6-Chloro-imidazo[2,1-b] thiazole-5-sulfonic acid indan-5-ylamide]", "Ki": 11.1}, {"compound": "CC(=O)N1CCc2cc(NS(=O)(=O)c3c(Cl)nc4sccn34)ccc21", "note": "[Compound 19, 6-Chloro-imidazo[2,1-b]thiazole-5-sulfonic acid (1-acetyl-2,3-dihydro-1H-indol-5-yl)-amide]", "Ki": 1.6}, {"compound": "O=S(=O)(Nc1ccc2c(c1)CCN2)c1c(Cl)nc2sccn12", "note": "[Compound 23, 6-Chloro-imidazo[2,1-b]thiazole-5-sulfonic acid (2,3-dihydro-1H-indol-5-yl)-amide hydrochloride]", "Ki": 20}]}]}
